According to patent US6737383B1, “Herbicidal oxadiazolidines” (priority 1999, dated 2004):

Key:
[1] = test system: bedstraw; test: Test B pre/postemergence bedstraw; assay type: in vivo, Galium aparine
Method in brief: (§1)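 Test chemicals in a non-phytotoxic solvent mixture with surfactant were sprayed preemergence onto planted seeds and postemergence onto plants 2 to 18 cm tall (1- to 4-leaf stage). After twelve to sixteen days in a greenhouse, injury was visually rated against untreated controls from 0 (no effect) to 10 (complete control).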

[2] = test system: blackgrass; test: Test B pre/postemergence blackgrass; assay type: in vivo, Alopecurus myosuroides
Method in brief: as §1

[3] = test system: surinam grass; test: Test B pre/postemergence surinam grass; assay type: in vivo, Brachiaria decumbens
Method in brief: as §1

[4] = test system: cocklebur; test: Test B pre/postemergence cocklebur; assay type: in vivo, Xanthium strumarium
Method in brief: as §1

[5] = test system: corn; test: Test B pre/postemergence corn; assay type: in vivo, Zea mays
Method in brief: as §1

[6] = test system: crabgrass; test: Test B pre/postemergence crabgrass; assay type: in vivo, Digitaria sanguinalis
Method in brief: as §1

[7] = test system: giant foxtail; test: Test B pre/postemergence giant foxtail; assay type: in vivo, Setaria faberii
Method in brief: as §1

[8] = test system: morningglory; test: Test B pre/postemergence morningglory; assay type: in vivo, Ipomoea hederacea
Method in brief: as §1

[9] = test system: pigweed; test: Test B pre/postemergence pigweed; assay type: in vivo, Amaranthus retroflexus
Method in brief: as §1

[10] = test system: rape; test: Test B pre/postemergence rape; assay type: in vivo, Brassica napus
Method in brief: as §1

[11] = test system: soybean; test: Test B pre/postemergence soybean; assay type: in vivo, Glycine max
Method in brief: as §1

[12] = test system: sugar beet; test: Test B pre/postemergence sugar beet; assay type: in vivo, Beta vulgaris
Method in brief: as §1

[13] = test system: velvetleaf; test: Test B pre/postemergence velvetleaf; assay type: in vivo, Abutilon theophrasti
Method in brief: as §1

[14] = test system: wheat; test: Test B pre/postemergence wheat; assay type: in vivo, Triticum aestivum
Method in brief: as §1

[15] = test system: wild oat; test: Test B pre/postemergence wild oat; assay type: in vivo, Avena fatua
Method in brief: as §1

[16] = test system: purple nutsedge; test: Test B pre/postemergence purple nutsedge; assay type: in vivo, Cyperus rotundus
Method in brief: as §1

[17] = Postemergence, Rate 500 g/ha, scale 0 to 10, 0 is no effect, 10 is complete control
[18] = Preemergence, Rate 62 g/ha, scale of 0 to 10 where 0 is no effect and 10 is complete control
[19] = Preemergence, Rate 125 g/ha, scale 0 to 10, 0 is no effect, 10 is complete control
[20] = Postemergence, Rate 62 g/ha, scale of 0 to 10, 0 is no effect, 10 is complete control
[21] = Postemergence, Rate 125 g/ha, scale 0 to 10, 0 is no effect, 10 is complete control
[22] = Rate 250 g/ha, Postemergence, scale of 0 to 10 where 0 is no effect and 10 is complete control
[23] = Preemergence, Rate 500 g/ha, scale of 0 to 10 where 0 is no effect and 10 is complete control

## CC(C)N(C(=O)n1oc(=O)n(CCCC(F)(F)F)c1=O)c1ccc(F)cc1F [Compound 526]
[1]; [17]
  Plant response rating, Bedstraw: 9
[1]; [18]
  Plant response rating, Bedstraw: 0
[1]; [19]
  Bedstraw plant response rating: 0
[1]; Preemergence, Rate 250 g/ha
  Bedstraw plant response rating (0 to 10 scale): 7
[2]; [20]
  Blackgrass plant response rating: 3
[2]; [21]
  Blackgrass plant response rating: 6
[2]; [17]
  Plant response rating, Blackgrass: 7
[2]; [18]
  Plant response rating, Blackgrass: 7
[2]; [19]
  Blackgrass plant response rating: 9
[2]; Preemergence, Rate 250 g/ha
  Blackgrass plant response rating (0 to 10 scale): 10
[2]; [22]
  Plant response rating, Blackgrass: 9
[3]; [20]
  B. signalgrass plant response rating: 0
[3]; [21]
  B. signalgrass plant response rating: 2
[3]; [17]
  Plant response rating, B. signalgrass: 6
[3]; [18]
  Plant response rating, B. signalgrass: 8
[3]; [19]
  B. signalgrass plant response rating: 9
[3]; Preemergence, Rate 250 g/ha
  B. signalgrass plant response rating (0 to 10 scale, 0 is no effect, 10 is complete control): 9
[3]; [22]
  Plant response rating, B. signalgrass: 4
[4]; [20]
  Cocklebur plant response rating: 0
[4]; [21]
  Cocklebur plant response rating: 0
[4]; [17]
  Plant response rating, Cocklebur: 2
[4]; [18]
  Plant response rating, Cocklebur: 0
[4]; [19]
  Cocklebur plant response rating: 0
[4]; Preemergence, Rate 250 g/ha
  Cocklebur plant response rating (0 to 10 scale): 0
[4]; [23]
  Cocklebur plant response rating: 0
[4]; [22]
  Plant response rating, Cocklebur: 0
[5]; [20]
  Corn plant response rating: 0
[5]; [21]
  Corn plant response rating: 2
[5]; [17]
  Plant response rating, Corn: 2
[5]; [18]
  Plant response rating, Corn: 0
[5]; [19]
  Corn plant response rating: 0
[5]; Preemergence, Rate 250 g/ha
  Corn plant response rating (0 to 10 scale): 0
[5]; [23]
  Corn plant response rating: 2
[5]; [22]
  Plant response rating, Corn: 2
[6]; [20]
  Crabgrass plant response rating: 6
[6]; [21]
  Crabgrass plant response rating: 9
[6]; [17]
  Plant response rating, Crabgrass: 10
[6]; [18]
  Plant response rating, Crabgrass: 9
[6]; [19]
  Crabgrass plant response rating: 10
[6]; Preemergence, Rate 250 g/ha
  Crabgrass plant response rating (0 to 10 scale): 10
[6]; [23]
  Crabgrass plant response rating: 10
[6]; [22]
  Plant response rating, Crabgrass: 9
[7]; [20]
  Giant foxtail plant response rating: 3
[7]; [21]
  Giant foxtail plant response rating: 3
[7]; [17]
  Plant response rating, Giant foxtail: 8
[7]; [18]
  Plant response rating, Giant foxtail: 9
[7]; [19]
  Giant foxtail plant response rating: 10
[7]; Preemergence, Rate 250 g/ha
  Giant foxtail plant response rating (0 to 10 scale): 10
[7]; [23]
  Giant foxtail plant response rating: 10
[7]; [22]
  Plant response rating, Giant foxtail: 7
[8]; [20]
  Morningglory plant response rating: 6
[8]; [21]
  Morningglory plant response rating: 6
[8]; [17]
  Plant response rating, Morningglory: 7
[8]; [18]
  Plant response rating, Morningglory: 0
[8]; [19]
  Morningglory plant response rating: 0
[8]; Preemergence, Rate 250 g/ha
  Morningglory plant response rating (0 to 10 scale): 0
[8]; [23]
  Morningglory plant response rating: 2
[8]; [22]
  Plant response rating, Morningglory: 6
[9]; [20]
  Redroot pigweed plant response rating: 0
[9]; [21]
  Redroot pigweed plant response rating: 0
[9]; [17]
  Plant response rating, Redroot pigweed: 4
[9]; [18]
  Plant response rating, Redroot pigweed: 4
[9]; [19]
  Redroot pigweed plant response rating: 4
[9]; Preemergence, Rate 250 g/ha
  Redroot pigweed plant response rating (0 to 10 scale): 4
[9]; [22]
  Plant response rating, Redroot pigweed: 2
[10]; [20]
  Rape plant response rating: 0
[10]; [21]
  Rape plant response rating: 4
[10]; [17]
  Plant response rating, Rape: 4
[10]; [18]
  Plant response rating, Rape: 4
[10]; [19]
  Rape plant response rating: 4
[10]; Preemergence, Rate 250 g/ha
  Rape plant response rating (0 to 10 scale): 9
[11]; [20]
  Soybean plant response rating: 2
[11]; [21]
  Soybean plant response rating: 3
[11]; [17]
  Plant response rating, Soybean: 3
[11]; [18]
  Plant response rating, Soybean: 0
[11]; [19]
  Soybean plant response rating: 0
[11]; Preemergence, Rate 250 g/ha
  Soybean plant response rating (0 to 10 scale): 0
[11]; [23]
  Soybean plant response rating: 0
[11]; [22]
  Plant response rating, Soybean: 3
[12]; [20]
  Sugarbeets plant response rating: 0
[12]; [21]
  Sugarbeets plant response rating: 0
[12]; [17]
  Plant response rating, Sugarbeets: 0
[12]; [18]
  Plant response rating, Sugarbeets: 4
[12]; [19]
  Sugarbeets plant response rating: 6
[12]; Preemergence, Rate 250 g/ha
  Sugarbeets plant response rating (0 to 10 scale): 8
[12]; [23]
  Sugarbeets plant response rating: 8
[12]; [22]
  Plant response rating, Sugarbeets: 0
[13]; [20]
  Velvetleaf plant response rating: 4
[13]; [21]
  Velvetleaf plant response rating: 4
[13]; [17]
  Plant response rating, Velvetleaf: 8
[13]; [18]
  Plant response rating, Velvetleaf: 0
[13]; [19]
  Velvetleaf plant response rating: 2
[13]; Preemergence, Rate 250 g/ha
  Velvetleaf plant response rating (0 to 10 scale): 2
[13]; [23]
  Velvetleaf plant response rating: 3
[13]; [22]
  Plant response rating, Velvetleaf: 7
[14]; [20]
  Wheat plant response rating: 0
[14]; [21]
  Wheat plant response rating: 0
[14]; [17]
  Plant response rating, Wheat: 0
[14]; [18]
  Plant response rating, Wheat: 0
[14]; [19]
  Wheat plant response rating: 0
[14]; Preemergence, Rate 250 g/ha
  Wheat plant response rating (0 to 10 scale): 8
[14]; [22]
  Plant response rating, Wheat: 0
[15]; [20]
  Wild oats plant response rating: 0
[15]; [21]
  Wild oats plant response rating: 0
[15]; [17]
  Plant response rating, Wild oats: 0
[15]; [18]
  Plant response rating, Wild oats: 7
[15]; [19]
  Wild oats plant response rating: 9
[15]; Preemergence, Rate 250 g/ha
  Wild oats plant response rating (0 to 10 scale): 9
[15]; [22]
  Plant response rating, Wild oats: 0
[16]; [20]
  Nutsedge plant response rating: 0
[16]; [21]
  Nutsedge plant response rating: 0
[16]; [17]
  Plant response rating, Nutsedge: 2
[16]; [18]
  Plant response rating, Nutsedge: 0
[16]; [19]
  Nutsedge plant response rating: 0
[16]; Preemergence, Rate 250 g/ha
  Nutsedge plant response rating (0 to 10 scale): 0
[16]; [23]
  Nutsedge plant response rating: 0
[16]; [22]
  Plant response rating, Nutsedge: 0
